The text below walks through data of PMC5219937 (Bioconjugate chemistry, 2015).

Like-named read-outs stand apart in the source and are kept apart here.

The conditions of data set [1]: cited from earlier work.
In data set [2] the test system is type 2 diabetic C57BL/6 db/db mice. The experiment in a line: Hypoglycemic effect after subcutaneous injection in db/db mice. Type of data set: in vivo, mouse.

On to “GLP-1: 30-amino-acid peptide hormone secreted from gut endocrine L cells”, for which, in data set [1] (endogenous GLP-1, degraded by DPP-4 once secreted), the half-lifetime was 0.017 to 0.033 h.
In turn, “Albiglutide: a exendin-4-albumin fusion protein, FDA approved, once a week administration” returned a blood glucose level in data set [2] (dose 14 nmol/kg (Figure S8b)) of 11.88 mmol/L. The “time required to rebound to a glucose level of 8.35 mmol/L (hypoglycemic duration)” value worked out at 11 h in data set [2] (dose 69 nmol/kg) and 28 h in data set [2] (dose 123 nmol/kg (Figure S8d)). In addition, the lowest glucose level in data set [2] (dose 69 nmol/kg, three mice, mean) was determined as 7.03 mmol/L; in data set [2] (dose 123 nmol/kg (Figure S8c)), 6.67 mmol/L. The half-lifetime in data set [1] is 96 to 170 h.
Turning to Exenatide: commercial exendin-4, the circulating half-life in data set [1] is 1.5 to 3.6 h.
